Assay results published in US10189809B2, “SGC stimulators” (Ironwood Pharmaceuticals, Inc., priority 2010, dated 2019).
Where two headings read alike, the source gives them in different places.

Experiments:
Thoracic aortic rings = assay: Alternative thoracic aortic rings assay (Example 19b; resting tension as 100% inhibition); design: species or system rat; settings: Rattus norvegicus, Table 10B; for inhibition at 1 µM: read-out: Percent Relaxation at 1 μM; for inhibition at 3 µM: read-out: Percent Relaxation at 3 μM; for inhibition at 10 µM: read-out: Percent Relaxation at 10 μM; for EC50: read-out: Aortic Ring EC50
Method: Thoracic aortic rings were dissected from anesthetized (isoflurane) male Sprague-Dawley rats weighing 275-299 g. Tissues were immediately transferred to ice-cold Krebs-Henseleit solution, which had been aerated with 95% O2 and 5% CO2 for 30 minutes. Following removal of connective tissue, aortic sections were cut into 4 rings (˜2 mm each) and suspended on 2 L-shaped hooks, with one hook fixed at the bottom of the tissue bath (Schuler Organ Bath, Harvard Apparatus) and the other connected to a force transducer (F30 Force Transducer, Harvard Apparatus). Baths contained Krebs Henseleit solution (10 mL) heated to 37° C. and aerated with 95% O2 and 5% CO2. Rings were brought to an initial tension of 0.3-0.5 g and gradually raised to a resting tension of 1.0 g over 60 minutes. Rings were rinsed with Krebs Henseleit solution (heated to 37° C. and aerated with 95% O2 and 5% CO2) at 15 minute intervals until a stable baseline was obtained. Rings were considered to be stable after a resting tension of 1.0 g was maintained (for approximately 10 minutes) without need for adjustment. Rings were then contracted with 100 ng/mL phenylephrine by adding 100 uL of a 10 μg/mL phenylephrine stock solution. Tissues achieving a stable contraction were then treated in a cumulative, dose dependent manner with test compounds prepared in dimethylsulfoxide (DMSO). In some cases, tissues were rinsed three times over a 5 minute period with Krebs-Heinseleit's solution (heated to 37° C. and aerated with 95% O2 and 5% CO2), allowed to stabilize at baseline, and then used for characterization of other test articles or DMSO effects. All data were collected using the HSE-ACAD software provided by Harvard Apparatus. […] EC50 values were calculated from concentration-response curves generated with GraphPad Prism Software.

[1] = biological target: T1, soluble guanylate cyclase (sGC) (Homo sapiens (Human), UniProt Q02108+Q02153); assay: sGC-HEK-cGMP assay run in the absence of SNP (HEK WC assay); assay type: cell-based; settings: for HEK WC Assay (fold increase at 30 μM in the absence of SNP) / HEK WC Assay (fold increase at 30 μM): compound at 30 μM; for HEK WC Assay (fold increase at 10 μM): compound at 10 μM; for HEK WC Assay (fold increase at 10 μM) / HEK WC Assay (fold increase at 30 μM): no SNP, increase in the sGC receptor activity
T1 sequence (Q02153 whole entry): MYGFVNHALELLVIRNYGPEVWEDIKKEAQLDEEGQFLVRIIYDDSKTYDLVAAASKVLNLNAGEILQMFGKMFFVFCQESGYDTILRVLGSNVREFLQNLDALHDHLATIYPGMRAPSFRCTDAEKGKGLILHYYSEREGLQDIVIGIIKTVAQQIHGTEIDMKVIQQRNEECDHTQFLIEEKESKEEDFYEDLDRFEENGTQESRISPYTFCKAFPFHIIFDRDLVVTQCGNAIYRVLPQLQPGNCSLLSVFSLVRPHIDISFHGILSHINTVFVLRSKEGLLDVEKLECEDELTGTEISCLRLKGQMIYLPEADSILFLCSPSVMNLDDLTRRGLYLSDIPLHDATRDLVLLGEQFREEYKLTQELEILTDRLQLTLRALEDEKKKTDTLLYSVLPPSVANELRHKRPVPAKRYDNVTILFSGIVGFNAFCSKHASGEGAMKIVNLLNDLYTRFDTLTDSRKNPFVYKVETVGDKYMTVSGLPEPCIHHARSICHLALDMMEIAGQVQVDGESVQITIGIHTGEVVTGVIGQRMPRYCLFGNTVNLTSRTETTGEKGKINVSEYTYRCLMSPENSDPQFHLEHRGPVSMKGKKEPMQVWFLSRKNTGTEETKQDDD
T1 sequence (Q02108 whole entry): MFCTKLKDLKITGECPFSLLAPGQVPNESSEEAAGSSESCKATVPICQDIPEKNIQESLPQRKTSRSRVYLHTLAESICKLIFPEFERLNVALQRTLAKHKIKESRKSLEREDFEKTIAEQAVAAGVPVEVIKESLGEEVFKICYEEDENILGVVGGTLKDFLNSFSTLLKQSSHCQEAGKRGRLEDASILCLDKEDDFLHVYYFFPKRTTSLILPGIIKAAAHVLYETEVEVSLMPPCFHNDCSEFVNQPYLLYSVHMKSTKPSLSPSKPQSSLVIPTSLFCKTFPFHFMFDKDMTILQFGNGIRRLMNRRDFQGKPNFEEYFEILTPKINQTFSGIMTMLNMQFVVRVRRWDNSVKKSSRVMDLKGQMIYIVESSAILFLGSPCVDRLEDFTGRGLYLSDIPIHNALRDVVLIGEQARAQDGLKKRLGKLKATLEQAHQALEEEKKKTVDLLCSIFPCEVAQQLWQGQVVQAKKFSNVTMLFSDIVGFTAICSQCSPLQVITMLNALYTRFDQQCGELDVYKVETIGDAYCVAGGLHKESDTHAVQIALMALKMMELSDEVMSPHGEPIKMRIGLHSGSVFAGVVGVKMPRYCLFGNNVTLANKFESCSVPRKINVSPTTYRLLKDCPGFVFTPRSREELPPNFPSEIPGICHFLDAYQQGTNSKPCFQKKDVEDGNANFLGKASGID
How it was run: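 Intracellular cGMP was measured by LC/MS, using a standard curve, in HEK293 cells treated with compound for 10 min at 37° C after a 15 min 0.5 mM IBMX pretreatment, with no SNP present. Lysis and quench used 0.1 M HCl. EC50 values came from concentration-response fits.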

[2] = biological target: T1, soluble guanylate cyclase (sGC); assay: sGC-HEK-cGMP assay run with SNP incubation (HEK WC assay); assay type: cell-based; settings: for HEK WC Assay (fold increase at 30 μM in the presence of 10 μM SNP): compound at 30 μM; for EC50: in the presence of 10 uM SNP; for Emax at 10 µM: read-out: HEK WC Assay (% Emax at 10 uM/with 10 uM SNP); for Emax at 30 µM: read-out: HEK WC Assay (% Emax at 30 uM/with 10 uM SNP)
How it was run: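 EC50 values derive from concentration-response curves of intracellular cGMP in HEK293 cells, which express sGC endogenously. Compound and sodium nitroprusside were co-incubated 10 min at 37 °C after a 15-min 0.5 mM IBMX step, with 0.1 M HCl lysis and 1% DMSO vehicle.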

[3] = biological target: Human soluble guanylate cyclase enzyme (hsGC) (Homo sapiens (Human), UniProt Q02108+Q02153); assay: Purified human sGC enzyme activity assay; assay type: biochemical; settings: for sGC Enzyme (specific activity at 10 μM) / sGC Enzyme (fold increase at 10 μM without SNP): 10 μM compound; for sGC Enzyme (specific activity at 30 μM) / sGC Enzyme (fold increase at 30 μM without SNP): 30 μM compound
Sequence of Human soluble guanylate cyclase enzyme (hsGC) (Q02153 whole entry): as the sequence (Q02153 whole entry) above
Sequence of Human soluble guanylate cyclase enzyme (hsGC) (Q02108 whole entry): as the sequence (Q02108 whole entry) above
Method: Human soluble guanylate cyclase enzyme (hsGC) obtained from Enzo Inc. (P/N: ALX-201-177) was used to evaluate the activity of test compounds. The assay reactions contained 0.1 M Tris (pH 8.0), 0.5 mg/mL BSA (pH 8.0), 2 mM DTT, 2 mM MgCl2, 300 μM GTP, 1 mM 3-isobutyl-1-methylxanthine (IBMX) and 5 ng human soluble guanylate cyclase enzyme. Test compounds in DMSO were then added (2 μL, 10 or 30 μM final concentration) and incubated (200 μL, 96-well plate format) at 37° C. for 30 minutes. The controls were carried out using 2 μL DMSO. After the 30 minute incubation, the reaction was stopped with the addition of 200 μL of cold methanol. The plate was then centrifuged at 3,200 rpm for 10 minutes at room temperature. Supernatants (200 μL) were collected and transferred to a new 96 well plate for analysis.
An 8 point cGMP (Sigma-Aldrich P/N: G6129) standard curve was prepared in assay buffer ranging from 0.156-20 μM. Samples for the cGMP standard curve were then diluted with an equal volume of methanol resulting in final cGMP concentrations of 0.078-10 μM.
The cGMP standard curve was generated using GraphPad Prism Software.
Calculations: Specific Activity was determined by the amount of cGMP formed (nmoles) per mg of sGC per min. Enzyme “fold-change” was calculated by dividing Specific Activity for test compounds by Specific Activity of DMSO controls.

[4] = read-out: HEK WC Assay (% Emax at 10 μM with 10 uM SNP)
[5] = read-out: HEK WC Assay (% Emax at 30 μM with 10 uM SNP)
[6] = read-out: HEK WC Assay (% Emax at 1 μM with 10 uM SNP)

Compound | EC50 (Thoracic aortic rings) | HEK WC Assay (fold increase at 30 μM in the absence of SNP) [1] | HEK WC Assay (fold increase at 30 μM in the presence of 10 μM SNP) [2] | EC50 [2] | Emax [2, 4] | Emax [2, 5] | Emax [2, 6] | sGC Enzyme (specific activity at 10 μM) [3] | sGC Enzyme (fold increase at 10 μM without SNP) [3] | sGC Enzyme (specific activity at 30 μM) [3] | sGC Enzyme (fold increase at 30 μM without SNP) [3] | HEK WC Assay (fold increase at 10 μM) [1] | HEK WC Assay (fold increase at 30 μM) [1] | Emax at 10 µM [2] | Emax at 30 µM [2] | inhibition at 1 µM (Thoracic aortic rings) | inhibition at 3 µM (Thoracic aortic rings) | inhibition at 10 µM (Thoracic aortic rings)
Nc1nc(-c2cc(-c3ccon3)n(Cc3ccccc3F)n2)ncc1N1CCOC1=O [Compound I-153] | < 2 µM | C (C = 2 to <5 fold increase) | D (D = 5 to <10 fold increase) | < 20 µM | 40 to 60% | 60 to 80% |  |  |  |  |  |  |  |  |  | 60 to 80% | 60 to 80% | 80 to 100%
Nc1nc(-c2cc(-c3ccon3)n(Cc3ccccc3F)n2)ncc1NC(=O)c1ccccc1F [Compound I-172] | < 2 µM | E (E = 10 to <20 fold increase) | E (E = 10 to <20 fold increase) | < 20 µM | 60 to 80% | 80 to 100% | 80 to 100% |  |  |  |  |  |  |  |  | 80 to 100% | 100 to 120% | 100 to 120%
CS(=O)(=O)c1cnc(-c2cc(-c3ccon3)n(Cc3ccccc3F)n2)nc1O [Compound I-196] | < 2 µM | C (C = 2 to <5 fold increase) | E (E = 10 to <20 fold increase) | < 20 µM | 60 to 80% | 80 to 100% | 20 to 40% |  |  |  |  |  |  |  |  | 60 to 80% | 80 to 100% | 80 to 100%
COc1cccc(C(=O)Nc2cnc(-c3cc(-c4ccon4)n(Cc4ccccc4F)n3)nc2N)c1 [Compound I-174] | < 2 µM | E (E = 10 to <20 fold increase) | F (F = 20 to <30 fold increase) | < 20 µM | 80 to 100% | 100 to 120% | 60 to 80% |  |  |  |  |  |  |  |  | 80 to 100% | 80 to 100% | 
Fc1ccccc1Cn1nc(-c2ncccn2)cc1-c1cccnc1 [Compound I-10] |  |  |  |  |  |  |  | D (D = 200 to <500) | B (B = 2 to <5 fold increase) | D (D = 200 to <500) | B (B = 2 to <5 fold increase) | A (A = no increase to <1 fold increase) | A (A = no increase to <1 fold increase) | 0 to 10% | 0 to 10% |  |  | 
Nc1ccnc(-c2cc(-c3ccccn3)nn2Cc2ccccc2F)n1 [Compound I-41] |  |  |  |  |  |  |  | B (B = 50 to <100) | A (A = no increase to <2 fold increase) | C (C = 100 to <200) | B (B = 2 to <5 fold increase) | A (A = no increase to <1 fold increase) | A (A = no increase to <1 fold increase) | 0 to 10% | 0 to 10% |  |  | 
Fc1ccccc1Cn1nc(-c2ccccn2)cc1-c1ccncc1 [Compound I-11] |  |  |  |  |  |  |  |  | A (A = no increase to <2 fold increase) | C (C = 100 to <200) | A (A = no increase to <2 fold increase) | A (A = no increase to <1 fold increase) | A (A = no increase to <1 fold increase) | 0 to 10% | 0 to 10% |  |  | 

Further lines, with some results ahead:

EC50 (Thoracic aortic rings) | HEK WC Assay (fold increase at 30 μM in the absence of SNP) [1] | HEK WC Assay (fold increase at 30 μM in the presence of 10 μM SNP) [2] | EC50 [2] | Emax [2, 4] | Emax [2, 5] | Emax [2, 6] | sGC Enzyme (specific activity at 10 μM) [3] | sGC Enzyme (fold increase at 10 μM without SNP) [3] | sGC Enzyme (specific activity at 30 μM) [3] | sGC Enzyme (fold increase at 30 μM without SNP) [3] | HEK WC Assay (fold increase at 10 μM) [1] | HEK WC Assay (fold increase at 30 μM) [1] | Emax at 10 µM [2] | Emax at 30 µM [2] | Compound | inhibition at 1 µM (Thoracic aortic rings) | inhibition at 3 µM (Thoracic aortic rings) | inhibition at 10 µM (Thoracic aortic rings)
< 2 µM | E (E = 10 to <20 fold increase) | F (F = 20 to <30 fold increase) | < 20 µM | 100 to 120% | 100 to 120% | 100 to 120% |  |  |  |  |  |  |  |  | CC1(C(=O)Nc2cnc(-c3cc(-c4ccon4)n(Cc4ccccc4F)n3)nc2N)CC1 [Compound I-206] | 20 to 40% | 60 to 80% | 80 to 100%
< 2 µM | E (E = 10 to <20 fold increase) | F (F = 20 to <30 fold increase) | < 20 µM | 100 to 120% | 100 to 120% |  |  |  |  |  |  |  |  |  | COC(=O)Nc1cnc(-c2cc(-c3ccon3)n(Cc3ccccc3F)n2)nc1N [Compound I-142] | 80 to 100% | 100 to 120% | 
< 2 µM | E (E = 10 to <20 fold increase) | G (G = 30 to <40 fold increase) | < 20 µM | 80 to 100% | 60 to 80% |  |  |  |  |  |  |  |  |  | Nc1nc(-c2cc(-c3ccon3)n(Cc3ccccc3F)n2)ncc1NC(=O)c1ccccn1 [Compound I-162] | 100 to 120% | > 120% | 
< 2 µM | D (D = 5 to <10 fold increase) | F (F = 20 to <30 fold increase) | < 20 µM | 80 to 100% | 100 to 120% | 40 to 60% |  |  |  |  |  |  |  |  | CC(C)C(=O)Nc1cnc(-c2cc(-c3ccon3)n(Cc3ccccc3F)n2)nc1N [Compound I-165] | 60 to 80% | 80 to 100% | 100 to 120%
< 2 µM | C (C = 2 to <5 fold increase) | D (D = 5 to <10 fold increase) | < 20 µM | 60 to 80% | 60 to 80% |  |  |  |  |  |  |  |  |  | CC(=O)Nc1cnc(-c2cc(-c3ncco3)n(Cc3ccccc3F)n2)nc1N [Compound I-151] | 80 to 100% | 100 to 120% | 100 to 120%
< 2 µM | D (D = 5 to <10 fold increase) | E (E = 10 to <20 fold increase) | < 20 µM | 100 to 120% | 100 to 120% |  |  |  |  |  |  |  |  |  | CC(C)(C)OC(=O)Nc1cnc(-c2cc(-c3ncco3)n(Cc3ccccc3F)n2)nc1N [Compound I-148] | 80 to 100% | 80 to 100% | 
< 2 µM | D (D = 5 to <10 fold increase) | G (G = 30 to <40 fold increase) | < 20 µM | 80 to 100% | 100 to 120% | 60 to 80% |  |  |  |  |  |  |  |  | COc1ccccc1C(=O)Nc1cnc(-c2cc(-c3ccon3)n(Cc3ccccc3F)n2)nc1N [Compound I-166] | 40 to 60% | 80 to 100% | 100 to 120%
